# Ends that are not written are not given here.
# Columns and labels:
# [1] = tested on: T-type Ca2+ channels; conditions: patients; cited from earlier work
# [2] = Method: FIG. 5. […] Animals were sacrificed, and tissues were harvested four hours post-injection.
# A His-tagging method was used to assess the brain-penetrance of peptide therapeutics (Westlund et al., 2021, Neurobiol Pain 10:100067). Briefly, a His-tagged TAT-C3P peptide with the sequence […] (SEQ ID NO: 3) was ordered from Genscript. Protein content was assessed with Western blots using standard methods. Briefly, the sample protein was denatured, followed by gel electrophoresis to separate proteins by molecular weight. An anti-His-tag monoclonal antibody (C-terminal A01857, GenScript) that binds to the His-tag conjugated to the TAT-C3P peptide or anti-β-actin antibody (ab8226, Abcam, Cambridge, United Kingdom) was applied to the electrophoresis membrane. After washing off the antibody, specific secondary antibodies were added which recognized and bound to the primary antibodies. The secondary antibody was visualized through immunofluorescence probe attached to the secondary antibody, allowing indirect detection, validation, and semi-quantitative assessment of the specific target protein.
# [3] = in vivo
# [4] = target: Cav3.3 channels (Homo sapiens, UniProt Q9P0X4); conditions: cited from earlier work
# [5] = target: T1, Cav3.3 (Mus musculus, UniProt E9Q7P2); experiment: Western blot of Cav3.3 protein levels in whole trigeminal ganglia lysates after peptide injection; format: in vivo; conditions: FRICT-ION mice, whole TG lysates, four hours post injection, normalized to actin
# T1 construct: Western blot analysis of Cav3.3 protein levels from whole TG lysates was performed; from tissue; host or cells: mouse trigeminal ganglia (FRICT-ION model)
# T1 sequence (E9Q7P2 1-2199): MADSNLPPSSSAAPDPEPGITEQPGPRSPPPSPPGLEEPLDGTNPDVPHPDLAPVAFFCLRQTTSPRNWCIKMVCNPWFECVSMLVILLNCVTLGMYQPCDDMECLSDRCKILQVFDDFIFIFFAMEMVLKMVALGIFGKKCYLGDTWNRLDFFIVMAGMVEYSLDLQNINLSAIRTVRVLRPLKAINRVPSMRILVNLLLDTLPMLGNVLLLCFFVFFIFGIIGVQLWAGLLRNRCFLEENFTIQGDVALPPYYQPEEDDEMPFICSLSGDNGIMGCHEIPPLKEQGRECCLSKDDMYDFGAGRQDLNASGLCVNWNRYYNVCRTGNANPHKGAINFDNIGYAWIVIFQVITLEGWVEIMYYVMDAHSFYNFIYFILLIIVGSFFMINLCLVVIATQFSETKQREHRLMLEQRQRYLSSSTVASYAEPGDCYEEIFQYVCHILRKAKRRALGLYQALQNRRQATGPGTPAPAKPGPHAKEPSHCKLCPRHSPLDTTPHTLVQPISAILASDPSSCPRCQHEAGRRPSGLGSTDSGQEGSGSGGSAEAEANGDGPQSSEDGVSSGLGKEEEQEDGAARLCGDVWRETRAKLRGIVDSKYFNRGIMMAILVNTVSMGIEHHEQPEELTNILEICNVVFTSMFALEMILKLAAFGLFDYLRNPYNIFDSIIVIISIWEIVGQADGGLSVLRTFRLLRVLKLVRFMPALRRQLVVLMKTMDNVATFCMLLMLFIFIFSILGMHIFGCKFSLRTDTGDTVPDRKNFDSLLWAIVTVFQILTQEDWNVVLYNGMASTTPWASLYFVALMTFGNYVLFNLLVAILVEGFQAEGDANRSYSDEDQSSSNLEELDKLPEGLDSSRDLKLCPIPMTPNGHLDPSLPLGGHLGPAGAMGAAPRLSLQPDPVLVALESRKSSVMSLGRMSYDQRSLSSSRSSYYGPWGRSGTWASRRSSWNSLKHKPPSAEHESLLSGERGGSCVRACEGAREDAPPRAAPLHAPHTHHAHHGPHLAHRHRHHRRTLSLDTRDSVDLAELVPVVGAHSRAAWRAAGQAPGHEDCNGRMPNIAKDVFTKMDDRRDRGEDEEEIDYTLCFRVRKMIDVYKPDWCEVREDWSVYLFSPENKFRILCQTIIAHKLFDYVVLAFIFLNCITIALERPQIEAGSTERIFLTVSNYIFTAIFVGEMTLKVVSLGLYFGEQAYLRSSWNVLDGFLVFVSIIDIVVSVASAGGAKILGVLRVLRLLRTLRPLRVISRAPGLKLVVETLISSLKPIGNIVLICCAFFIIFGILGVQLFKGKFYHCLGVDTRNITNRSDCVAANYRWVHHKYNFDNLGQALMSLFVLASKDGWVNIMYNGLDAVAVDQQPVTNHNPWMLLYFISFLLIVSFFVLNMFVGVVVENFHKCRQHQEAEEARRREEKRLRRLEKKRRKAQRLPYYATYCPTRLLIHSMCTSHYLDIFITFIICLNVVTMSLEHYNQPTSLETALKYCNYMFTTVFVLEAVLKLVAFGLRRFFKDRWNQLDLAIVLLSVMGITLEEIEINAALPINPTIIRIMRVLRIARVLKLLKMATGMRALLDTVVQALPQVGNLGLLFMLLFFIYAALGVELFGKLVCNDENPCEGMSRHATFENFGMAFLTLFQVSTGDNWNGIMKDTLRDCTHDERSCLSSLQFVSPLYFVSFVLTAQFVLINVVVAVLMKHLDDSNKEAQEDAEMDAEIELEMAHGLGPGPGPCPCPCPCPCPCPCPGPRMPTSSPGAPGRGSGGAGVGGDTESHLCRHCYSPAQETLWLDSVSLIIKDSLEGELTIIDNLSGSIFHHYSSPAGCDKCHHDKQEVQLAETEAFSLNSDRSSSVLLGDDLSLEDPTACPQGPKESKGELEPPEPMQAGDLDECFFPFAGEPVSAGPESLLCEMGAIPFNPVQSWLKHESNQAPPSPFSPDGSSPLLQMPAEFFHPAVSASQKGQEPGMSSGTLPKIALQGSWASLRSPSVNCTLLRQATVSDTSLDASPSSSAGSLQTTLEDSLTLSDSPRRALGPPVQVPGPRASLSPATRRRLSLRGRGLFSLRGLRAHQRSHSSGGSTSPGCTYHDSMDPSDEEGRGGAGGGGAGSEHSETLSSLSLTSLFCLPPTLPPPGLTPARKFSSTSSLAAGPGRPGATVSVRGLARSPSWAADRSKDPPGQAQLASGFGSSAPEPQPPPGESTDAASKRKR
# Experimental: Twelve male and female mice (8-10 weeks old, six mice per sex) were subject to the FRICT-ION model of trigeminal neuropathic pain. Three mice of each sex were administered TAT-C3P peptide (SEQ ID NO:1) and the remaining mice were administered TAT-C3D (SEQ ID NO:2) following the methods described above. Four hours post injection, mice were euthanized with pentobarbital (50 mg/kg) and both ipsilateral and contralateral trigeminal ganglia (TG) were removed. TG were washed immediately in PBS and stored at −80° C.
# The TG for each of the four groups were pooled together (n=3) for protein extraction and homogenized using a pestle and 500 μL of 1×RIPA buffer (Thermo Fisher Scientific, Inc., Waltham, Mass.). Samples were put on a rocking shaker for two hours and then centrifuged, and supernatant removed to a new tube. Samples were assayed for total protein. […] Samples were then prepared for electrophoresis by mixing with 2× sample buffer and boiling for five minutes at 100° C. for denaturation.
# Proteins were loaded on a 12% Tris-Glycine polyacrylamide gradient gel (Bio-Rad Laboratories, Inc., Hercules, Calif.) and transferred to a PVDF membrane (MilliporeSigma, Burlington, Mass.). […] Signal intensity was analyzed using ImageJ (Schneider et al., Nature Methods 9:671-675 (2012)) for comparisons.
# Male and female mice were analyzed separately. […]
# Sequence of Cav3.3 channels (Q9P0X4 whole entry): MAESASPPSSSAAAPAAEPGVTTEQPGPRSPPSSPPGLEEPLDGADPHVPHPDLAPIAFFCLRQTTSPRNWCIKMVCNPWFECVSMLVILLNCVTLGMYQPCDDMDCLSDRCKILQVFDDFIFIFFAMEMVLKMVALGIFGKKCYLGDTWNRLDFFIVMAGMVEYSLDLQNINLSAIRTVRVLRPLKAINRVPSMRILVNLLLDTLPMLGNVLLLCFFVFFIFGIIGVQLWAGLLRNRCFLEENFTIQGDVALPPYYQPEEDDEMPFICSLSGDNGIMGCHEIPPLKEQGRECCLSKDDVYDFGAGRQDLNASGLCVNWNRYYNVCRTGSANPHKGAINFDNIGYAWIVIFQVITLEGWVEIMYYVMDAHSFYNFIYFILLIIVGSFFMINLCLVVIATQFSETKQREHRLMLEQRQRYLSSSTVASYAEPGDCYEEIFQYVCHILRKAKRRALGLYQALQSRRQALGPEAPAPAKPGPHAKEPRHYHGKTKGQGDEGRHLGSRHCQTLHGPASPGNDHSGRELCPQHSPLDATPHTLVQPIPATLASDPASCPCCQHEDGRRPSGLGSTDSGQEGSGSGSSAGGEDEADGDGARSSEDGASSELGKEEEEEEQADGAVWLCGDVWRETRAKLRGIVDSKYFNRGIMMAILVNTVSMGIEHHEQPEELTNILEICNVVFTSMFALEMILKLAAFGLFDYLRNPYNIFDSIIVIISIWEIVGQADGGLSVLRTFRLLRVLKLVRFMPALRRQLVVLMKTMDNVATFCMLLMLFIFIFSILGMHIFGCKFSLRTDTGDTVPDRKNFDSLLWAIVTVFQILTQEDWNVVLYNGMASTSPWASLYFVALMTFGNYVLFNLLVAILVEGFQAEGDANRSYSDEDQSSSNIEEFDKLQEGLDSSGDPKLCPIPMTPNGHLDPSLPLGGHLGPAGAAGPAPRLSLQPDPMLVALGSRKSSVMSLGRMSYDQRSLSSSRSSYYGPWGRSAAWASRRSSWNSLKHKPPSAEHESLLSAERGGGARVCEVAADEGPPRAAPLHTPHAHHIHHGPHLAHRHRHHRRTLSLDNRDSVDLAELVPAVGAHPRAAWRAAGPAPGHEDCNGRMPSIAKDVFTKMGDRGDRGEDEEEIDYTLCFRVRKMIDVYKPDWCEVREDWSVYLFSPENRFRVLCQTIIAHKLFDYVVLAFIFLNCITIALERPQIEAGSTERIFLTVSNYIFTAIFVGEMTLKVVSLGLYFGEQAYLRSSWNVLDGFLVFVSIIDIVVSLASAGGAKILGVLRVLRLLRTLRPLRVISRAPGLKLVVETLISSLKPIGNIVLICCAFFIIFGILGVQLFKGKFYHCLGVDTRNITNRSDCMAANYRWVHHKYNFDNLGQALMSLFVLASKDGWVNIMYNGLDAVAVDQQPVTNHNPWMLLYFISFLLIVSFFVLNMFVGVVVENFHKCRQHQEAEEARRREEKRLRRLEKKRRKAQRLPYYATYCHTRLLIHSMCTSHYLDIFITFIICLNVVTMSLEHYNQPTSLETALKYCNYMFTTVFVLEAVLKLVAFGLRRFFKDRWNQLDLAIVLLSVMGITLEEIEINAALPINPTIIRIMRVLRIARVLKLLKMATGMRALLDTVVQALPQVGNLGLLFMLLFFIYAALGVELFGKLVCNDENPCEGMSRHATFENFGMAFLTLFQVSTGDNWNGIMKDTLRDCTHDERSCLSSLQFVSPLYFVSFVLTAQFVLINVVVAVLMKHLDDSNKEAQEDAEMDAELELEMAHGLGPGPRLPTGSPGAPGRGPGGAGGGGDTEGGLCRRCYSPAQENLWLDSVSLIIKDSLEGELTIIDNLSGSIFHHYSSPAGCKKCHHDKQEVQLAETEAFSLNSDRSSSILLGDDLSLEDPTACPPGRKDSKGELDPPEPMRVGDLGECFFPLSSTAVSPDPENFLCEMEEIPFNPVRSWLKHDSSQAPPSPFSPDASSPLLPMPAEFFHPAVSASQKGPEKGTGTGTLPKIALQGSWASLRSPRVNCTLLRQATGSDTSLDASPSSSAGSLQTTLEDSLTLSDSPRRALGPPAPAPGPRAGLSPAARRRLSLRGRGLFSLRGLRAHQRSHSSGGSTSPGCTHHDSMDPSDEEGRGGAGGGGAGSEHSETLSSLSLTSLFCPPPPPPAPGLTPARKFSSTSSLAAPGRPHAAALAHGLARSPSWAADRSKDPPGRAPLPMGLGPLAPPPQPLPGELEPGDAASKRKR
compound,measurement,setting,value
CCC1(C)CC(=O)NC1=O (stereo not drawn) [ethosuximide],outcome of clinical trial for neuropathic pain,[1],halted due to adverse events
GRKKRRQRRRPQEESNKEAREDAELDAEIELEMAQG [TAT-C3P],CNS penetration following intraperitoneal injection,[2]; FRICT-ION mice,penetrates the central nervous system
same,side effects,[3],no major side effects
GRKKRRQRRRPQEESNKEAREDAELDAEIELEMAQGHHHHHH [His-tagged TAT-C3P],His-tag bands in TG and medullary tissues,"[2]; male FRICT-ION mice, tissues harvested four hours post-injection",Bands were detected
"TAT-C3D: control peptide that does not block Cav3.3 channels, GRKKRRQRRRPQAVSSPARSGEPLHALSPRGTARSP (GRKKRRQRRRPQAVSSPARSGEPLHALSPRGTARSP; unkown; TAT-C3D (1)..(36))",inhibition of Cav3.3,[4],does not inhibit Cav3.3
same,Cav3.3 protein levels in the trigeminal ganglia,[5],strongly present
